{
  "source": "patent US11559579B2",
  "about": "(HealthPartners Research & Education, priority 2014, dated 2023)",
  "key": {"[1]": {"test_system": "Moderate Controlled Cortical Impact Injury Model (TBI)", "experiment": "Morris water maze probe trial after controlled cortical impact", "format": "in vivo, Sprague Dawley rats", "conditions": "days 11-14 post-injury", "text": "(§1) 2007 Mar. 15; 160(2):187-96. Onyszchuk, G., et al., J. Neurosci. Methods, 2007, 160(2): p."}, "[2]": {"test_system": "Moderate Controlled Cortical Impact Injury Model (TBI)", "experiment": "Beam walk motor function test after controlled cortical impact", "format": "in vivo, Sprague Dawley rats", "conditions": "day 7 post-injury vs day 1 baseline and vs saline (vehicle) rats on day 7; intranasal, first dose 4 hours post-injury, then once a day; FIG. 1", "text": "as §1"}, "[3]": {"conditions": "intranasal insulin; normal adults and patients with Alzheimer's disease; cited from earlier work"}, "M1 microglia (CD86)": {"test_system": "M1 microglia (CD86)", "experiment": "M1 microglia marker CD86 expression post-injury", "format": "in vivo, Sprague Dawley rats", "conditions": "sacrifice on day 8 post-injury; vs saline rats; FIG. 4", "text": "as §1\n(§2) Microglia are the macrophages of the brain, with two dominant phenotypes: M1 and M2.\n(§3) M1 microglia are classically activated pro-inflammatory cells. M1 microglia are useful in the initial healing process, but persistent activation results in neuronal cell death due to production of reactive oxygen species. M2 microglia are anti-inflammatory, pro-healing macrophages."}, "M2 microglia (CD206)": {"test_system": "M2 microglia (CD206)", "experiment": "M2 microglia marker CD206 expression post-injury", "format": "in vivo, Sprague Dawley rats", "conditions": "sacrifice on day 8 post-injury; vs intranasal saline rats; FIG. 3", "text": "as §1, §2, §3"}, "[4]": {"test_system": "Moderate Controlled Cortical Impact Injury Model (TBI)", "experiment": "Peg walk motor function test after controlled cortical impact", "format": "in vivo, Sprague Dawley rats", "conditions": "day 7 vs day 1 baseline and vs saline (vehicle) rats on day 7; intranasal, once a day; FIG. 2", "text": "as §1"}, "[5]": {"test_system": "neurons in the hippocampus", "experiment": "NeuN immunohistochemistry of hippocampus post-injury", "format": "in vivo, Sprague Dawley rats", "conditions": "after sacrifice on day 8 post-injury; vs saline rats; FIG. 8a/8b", "text": "as §1\nFIG. 8a illustrates neuronal viability in the saline rat hippocampus."}},
  "data": [
    {"substance": "insulin", "values": [
      {"measurement": "search strategy (Morris water maze probe trial)", "setting": "[1]; insulin vs saline (vehicle) treated rats, FIG. 7", "value": "saline (vehicle) treated rats utilized significantly less targeted search methods (looping) than insulin rats"},
      {"measurement": "number of crosses of the target island region (Morris water maze probe trial)", "setting": "[1]; vs saline (vehicle) treated rats, FIG. 6", "value": "significant increase in the number of crosses of the target island region"},
      {"measurement": "time to cross the beam (beam walk)", "setting": "[2]", "value": "significant decrease in time"},
      {"measurement": "memory", "setting": "[3]", "value": "improve memory"},
      {"measurement": "M1 microglia markers, expression of CD86", "setting": "M1 microglia (CD86)", "value": "no significant increase in expression of M1 microglia markers"},
      {"measurement": "M2 microglia, expression of CD206", "setting": "M2 microglia (CD206)", "value": "significant increase in M2 microglia"},
      {"measurement": "peg walk motor function", "setting": "[4]", "value": "positive trend towards improved motor function"},
      {"measurement": "neuronal viability in the hippocampus (NeuN)", "setting": "[5]", "value": "improved neuronal viability in the hippocampus"}
    ]}
  ]
}
